# Molecular target: Full length human recombinant HDAC11 (Homo sapiens (Human), UniProt Q96DB2)
# Experiment: Enzymatic HDAC11 assay, electrophoretic mobility shift
# Format: biochemical
# Details: substrate FAM-RHKK(tri-fluor-Ac)-NH2, read-out: HDAC11 IC50 Range
# Procedure: The enzymatic HDAC11 assay was performed using electrophoretic mobility shift assay. Full length human recombinant HDAC11 protein was expressed in baculoviral system and purified by affinity chromatography. The enzymatic reactions were assembled in 384 well plates in a total volume of 25 μL in a reaction buffer composing: 100 mM HEPES, pH 7.5, 25 mM KCl, 0.1% bovine serum albumin, 0.01% Triton X-100, 1% DMSO (from compounds) 2 μM of the fluorescently labeled peptide substrate and enzyme. The enzyme was added at a final concentration of 10 nM. The peptide substrate FAM-RHKK(tri-fluor-Ac)-NH2 was used. The compounds were tested at 12 concentrations spaced by 3× dilution intervals. Negative control samples (0%-inhibition in the absence of inhibitor) and positive control samples (100%-inhibition) were assembled in replicates of four in each assay plate. The reactions were incubated at 25° C. and quenched by the addition of 45 μL of termination buffer (100 mM HEPES, pH 7.5, 0.01% Triton X-100, 0.05% SDS).
# The terminated assay plates were analyzed on LabChip® 3000 microfluidic electrophoresis instrument (Perkin Elmer/Caliper Life Sciences). The fluorescence intensity of the electrophoretically separated de-acetylated product and substrate peptide was measured. Activity in each sample was determined as the product to sum ratio (PSR):P/(S+P), where P is the peak height of the product peptide and S is the peak height of the substrate peptide. Percent inhibition (Pinh) is determined using the following equation: Pinh=(PSR0%−PSRinh)/(PSR0%−PSR100%)*100,
# where PSRinh is the product sum ratio in the presence of inhibitor, PSR0% is the average product sum ration in the absence of inhibitor and PSR100% is the average product sum ratio in 100%-inhibition control samples. The IC50 values of inhibitors were determined by fitting the percent inhibition curves with 4 parameter dose-response model using XLfit 4 software.
# Full length human recombinant HDAC11, sequence (Q96DB2 whole entry): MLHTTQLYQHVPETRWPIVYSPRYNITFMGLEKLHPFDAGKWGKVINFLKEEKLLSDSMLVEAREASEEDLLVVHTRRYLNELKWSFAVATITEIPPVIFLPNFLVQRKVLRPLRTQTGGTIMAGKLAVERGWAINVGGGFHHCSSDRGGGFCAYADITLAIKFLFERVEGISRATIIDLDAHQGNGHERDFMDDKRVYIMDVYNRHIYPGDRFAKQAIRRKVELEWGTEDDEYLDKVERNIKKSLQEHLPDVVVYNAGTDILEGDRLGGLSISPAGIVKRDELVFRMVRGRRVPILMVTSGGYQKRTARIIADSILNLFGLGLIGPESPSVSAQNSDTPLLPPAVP
row,SMILES,IC50 [µM]
1,"O=C(NO)c1cccc2c1CC1(CCN(Cc3cccc(F)c3)C1=O)C2 (centres unmarked) [II-26, 1′-(3-fluorobenzyl)-N-hydroxy-2′-oxo-1,3-dihydrospiro[indene-2,3′-pyrrolidine]-4-carboxamide]",> 1
2,"O=C(NO)c1cccc2c1CC1(CCN(Cc3ccc(OC(F)(F)F)cc3)C1=O)C2 (centres unmarked) [II-27, N-hydroxy-2′-oxo-1′-(4-(trifluoromethoxy)benzyl)-1,3-dihydrospiro[indene-2,3′-pyrrolidine]-4-carboxamide]",< 0.5
3,"O=C(NO)c1cccc2c1CC1(CCN(Cc3cc(F)cc(F)c3)C1=O)C2 (centres unmarked) [II-28, 1′-(3,5-difluorobenzyl)-N-hydroxy-2′-oxo-1,3-dihydrospiro[indene-2,3′-pyrrolidine]-4-carboxamide]",> 1
4,"O=C(NO)c1cccc2c1CC1(CCN(Cc3ccccc3C(F)(F)F)C1=O)C2 (centres unmarked) [II-29, N-hydroxy-2′-oxo-1′-(2-(trifluoromethyl)benzyl)-1,3-dihydrospiro[indene-2,3′-pyrrolidine]-4-carboxamide]",0.5 to 1
5,"O=C(NO)c1cccc2c1CC1(CCN(Cc3cccc(Cl)c3)C1=O)C2 (centres unmarked) [II-30, 1′-(3-chlorobenzyl)-N-hydroxy-2′-oxo-1,3-dihydrospiro[indene-2,3′-pyrrolidine]-4-carboxamide]",< 0.5
6,"O=C(NO)c1cccc2c1CC1(CCN(Cc3cccc(C(F)(F)F)c3)C1=O)C2 (centres unmarked) [II-31, N-hydroxy-2′-oxo-1′-(3-(trifluoromethyl)benzyl)-1,3-dihydrospiro[indene-2,3′-pyrrolidine]-4-carboxamide]",< 0.5
7,"O=C(NO)c1cccc2c1CC1(CCN(Cc3ccccc3OC(F)(F)F)C1=O)C2 (centres unmarked) [II-32, N-hydroxy-2′-oxo-1′-(2-(trifluoromethoxy)benzyl)-1,3-dihydrospiro[indene-2,3′-pyrrolidine]-4-carboxamide]",0.5 to 1
8,"O=C(NO)c1cccc2c1CC1(CCN(Cc3cccc(Br)c3)C1=O)C2 (centres unmarked) [II-33, 1′-(3-bromobenzyl)-N-hydroxy-2′-oxo-1,3-dihydrospiro[indene-2,3′-pyrrolidine]-4-carboxamide]",< 0.5
9,"O=C(NO)c1cccc2c1CC1(CCN(Cc3csc(-c4ccccc4)n3)C1=O)C2 (centres unmarked) [II-34, N-hydroxy-2′-oxo-1′-((2-phenylthiazol-4-yl)methyl)-1,3-dihydrospiro[indene-2,3′-pyrrolidine]-4-carboxamide]",> 1
10,"O=C(NO)c1cccc2c1CC1(CCN(Cc3ccc(F)cc3F)C1=O)C2 (centres unmarked) [II-35, 1′-(2,4-difluorobenzyl)-N-hydroxy-2′-oxo-1,3-dihydrospiro[indene-2,3′-pyrrolidine]-4-carboxamide]",> 1
11,"COc1ccccc1CN1CCC2(Cc3cccc(C(=O)NO)c3C2)C1=O (centres unmarked) [II-36, N-hydroxy-1′-(2-methoxybenzyl)-2′-oxo-1,3-dihydrospiro[indene-2,3′-pyrrolidine]-4-carboxamide]",> 1
12,"O=C(NO)c1cccc2c1CC1(CCN(Cc3ccccc3-c3ccccc3)C1=O)C2 (centres unmarked) [II-37, 1′-([1,1′-biphenyl]-2-ylmethyl)-N-hydroxy-2′-oxo-1,3-dihydrospiro[indene-2,3′-pyrrolidine]-4-carboxamide]",< 0.5
13,"O=C(NO)c1cccc2c1CC1(CCN(Cc3ccc(Cl)c(Cl)c3)C1=O)C2 (centres unmarked) [II-38, 1′-(3,4-dichlorobenzyl)-N-hydroxy-2′-oxo-1,3-dihydrospiro[indene-2,3′-pyrrolidine]-4-carboxamide]",< 0.5
14,"Cc1ccc(CN2CCC3(Cc4cccc(C(=O)NO)c4C3)C2=O)cc1C (centres unmarked) [II-39, 1′-(3,4-dimethylbenzyl)-N-hydroxy-2′-oxo-1,3-dihydrospiro[indene-2,3′-pyrrolidine]-4-carboxamide]",0.5 to 1
15,"COc1cc(CN2CCC3(Cc4cccc(C(=O)NO)c4C3)C2=O)cc(OC)c1 (centres unmarked) [II-40, 1′-(3,5-dimethoxybenzyl)-N-hydroxy-2′-oxo-1,3-dihydrospiro[indene-2,3′-pyrrolidine]-4-carboxamide]",> 1
16,"O=C(NO)c1cccc2c1CC1(CCN(Cc3ccc(OCc4ccccc4)cc3)C1=O)C2 (centres unmarked) [II-41, 1′-(4-(benzyloxy)benzyl)-N-hydroxy-2′-oxo-1,3-dihydrospiro[indene-2,3′-pyrrolidine]-4-carboxamide]",< 0.5
17,"O=C(NO)c1cccc2c1CC1(CCN(Cc3cccc(OC(F)(F)F)c3)C1=O)C2 (centres unmarked) [II-42, N-hydroxy-2′-oxo-1′-(3-(trifluoromethoxy)benzyl)-1,3-dihydrospiro[indene-2,3′-pyrrolidine]-4-carboxamide]",< 0.5
18,"O=C(NO)c1cccc2c1CC1(CCN(Cc3cccc(C(F)(F)F)c3F)C1=O)C2 (centres unmarked) [II-43, 1′-(2-fluoro-3-(trifluoromethyl)benzyl)-N-hydroxy-2′-oxo-1,3-dihydrospiro[indene-2,3′-pyrrolidine]-4-carboxamide]",< 0.5

row,SMILES,IC50 [µM]
1,"O=C(NO)c1cccc2c1CC1(CCN(CC3CCCCC3)C1=O)C2 (centres unmarked) [II-44, 1′-(cyclohexylmethyl)-N-hydroxy-2′-oxo-1,3-dihydrospiro[indene-2,3′-pyrrolidine]-4-carboxamide]",> 1
2,"O=C(NO)c1cccc2c1CC1(CCN(Cc3cc(Cl)ccc3Cl)C1=O)C2 (centres unmarked) [II-45, 1′-(2,5-dichlorobenzyl)-N-hydroxy-2′-oxo-1,3-dihydrospiro[indene-2,3′-pyrrolidine]-4-carboxamide]",0.5 to 1
3,"O=C(NO)c1cccc2c1CC1(CCN(Cc3cc(-c4ccccc4)no3)C1=O)C2 (centres unmarked) [II-46, N-hydroxy-2′-oxo-1′-((3-phenylisoxazol-5-yl)methyl)-1,3-dihydrospiro[indene-2,3′-pyrrolidine]-4-carboxamide]",> 1
4,"O=C(NO)c1cccc2c1CC1(CCN(Cc3ccc(-n4cccn4)nc3)C1=O)C2 (centres unmarked) [II-47, 1′-((6-(1H-pyrazol-1-yl)pyridin-3-yl)methyl)-N-hydroxy-2′-oxo-1,3-dihydrospiro[indene-2,3′-pyrrolidine]-4-carboxamide]",> 1
5,"O=C(NO)c1cccc2c1CC1(CCN(Cc3ccc(C(F)(F)F)nc3)C1=O)C2 (centres unmarked) [II-48, N-hydroxy-2′-oxo-1′-((6-(trifluoromethyl)pyridin-3-yl)methyl)-1,3-dihydrospiro[indene-2,3′-pyrrolidine]-4-carboxamide]",> 1
6,"O=C(NO)c1cccc2c1CC1(CCN(Cc3noc(C4CCOCC4)n3)C1=O)C2 (centres unmarked) [II-49, N-hydroxy-2′-oxo-1′-((5-(tetrahydro-2H-pyran-4-yl)-1,2,4-oxadiazol-3-yl)methyl)-1,3-dihydrospiro[indene-2,3′-pyrrolidine]-4-carboxamide]",> 1
7,"Cc1noc(C)c1CN1CCC2(Cc3cccc(C(=O)NO)c3C2)C1=O (centres unmarked) [II-50, 1′-((3,5-dimethylisoxazol-4-yl)methyl)-N-hydroxy-2′-oxo-1,3-dihydrospiro[indene-2,3′-pyrrolidine]-4-carboxamide]",> 1
8,"O=C(NO)c1cccc2c1CC1(CCN(Cc3cccc(C(F)(F)F)n3)C1=O)C2 (centres unmarked) [II-51, N-hydroxy-2′-oxo-1′-((6-(trifluoromethyl)pyridin-2-yl)methyl)-1,3-dihydrospiro[indene-2,3′-pyrrolidine]-4-carboxamide]",> 1
9,"O=C(NO)c1cccc2c1CC1(CCN(CCN3CCOCC3)C1=O)C2 (centres unmarked) [II-52, N-hydroxy-1′-(2-morpholinoethyl)-2′-oxo-1,3-dihydrospiro[indene-2,3′-pyrrolidine]-4-carboxamide]",> 1
10,O=C(NO)c1cccc2c1CC1(CCN(Cc3cn(-c4ccccc4)nn3)C1=O)C2 (centres unmarked) [II-53],> 1
11,"O=C(NO)c1cccc2c1CC1(CCN(CC3CC3)C1=O)C2 (centres unmarked) [II-55, 1′-(cyclopropylmethyl)-N-hydroxy-2′-oxo-1,3-dihydrospiro[indene-2,3′-pyrrolidine]-4-carboxamide]",> 1
12,"O=C(NO)c1cccc2c1CC1(CCN(Cc3ccc(C(F)(F)F)cc3)C1)C2 (centres unmarked) [II-56, N-hydroxy-1′-(4-(trifluoromethyl)benzyl)-1,3-dihydrospiro[indene-2,3′-pyrrolidine]-4-carboxamide]",0.5 to 1
13,"O=C(NO)c1cccc2c1CC1(CCN(C3CC3)C1)C2 (centres unmarked) [II-57, 1′-cyclopropyl-N-hydroxy-1,3-dihydrospiro[indene-2,3′-pyrrolidine]-4-carboxamide]",> 1
14,"O=C(NO)c1cccc2c1CC1(CCN(C(=O)c3ccc(C(F)(F)F)cc3)C1)C2 (centres unmarked) [II-58, N-hydroxy-1′-(4-(trifluoromethyl)benzoyl)-1,3-dihydrospiro[indene-2,3′-pyrrolidine]-4-carboxamide]",> 1
15,"CC(=O)N1CCC2(Cc3cccc(C(=O)NO)c3C2)C1 (centres unmarked) [II-59, 1′-acetyl-N-hydroxy-1,3-dihydrospiro[indene-2,3′-pyrrolidine]-4-carboxamide]",> 1
16,"CC(=O)N1CCC2(CC1)Cc1cccc(C(=O)NO)c1C2 [II-60, 1′-acetyl-N-hydroxy-1,3-dihydrospiro[indene-2,4′-piperidine]-4-carboxamide]",> 1
17,"O=C(NO)c1cccc2c1CC1(CCN(C(=O)c3ccc(Cl)cc3)CC1)C2 [II-61, 1′-(4-chlorobenzoyl)-N-hydroxy-1,3-dihydrospiro[indene-2,4′-piperidine]-4-carboxamide]",> 1
